Entries after “also recorded” stand apart in the source; their conditions may differ.
Tests used:
[1] = tested on: F. graminearum CBS 185.32; format: cell-based, Fusarium graminearum
[2] = tested on: F. graminearum CBS 185.32; format: cell-based, Fusarium graminearum; remark: listed apart in the source
[3] = tested on: Fusarium culmorum and Fusarium graminearum; settings: cited from earlier work

Row | Substance | fungal growth / dry fungal biomass (antifungal activity) [1] | 15-ADON production [2] | DON production [2] | other results
1 | C G N F L K T T C I C V K K (CGNFLKTTCICVKK) [TickCore3-R7T] | strong antifungal activity only at 50 μM |  |  | 
2 | C G N F L K R T C I C V T K (CGNFLKRTCICVTK) [TickCore3-K13T] | strong antifungal activity only at 50 μM |  |  | 
3 | CGNFLKRTCIC(CH3)VKK [TickCore3-CH3-3 Ox] | no effect on fungal growth at any of the concentrations tested | significant increase | significant increase | 
4 | DefMT6: tick defensin described in Tonk et al., 2015 (GFGCPLNQGACHNHCRSIKRRGGYCSGIIKQTCTCYRK; DefMT6) [reference compound] |  |  |  | antibacterial and antifungal activity [3]: antibacterial and antifungal activity
5 | C(CH3)GNFLKRTC(CH3)IC(CH3)VKK [TickCore3-CH3-123] |  | significantly less | significantly less | inhibition of TCTB mycotoxin production (DON and 15-ADON together) [2]: little effect on the inhibitory effect affecting TCTB production
6 | GGYYCPFRQDKCHRHCRSFGRKAGYCGNFLKRTCICVKK (DefMT3) [tick defensin, synthesized by SPPS] |  | shows inhibitory activity | shows inhibitory activity | antibacterial and antifungal activity [3]: antibacterial and antifungal activity
7 | C(CH3)GNFLKRTCRICVKK [TickCore3-CH3-1 Ox] | no effect on fungal growth at any of the concentrations tested |  |  | 15-ADON levels [2]: significant reduction; DON levels [2]: significant reduction
8 | C G N F L K R T C I C V K K (CGNFLKRTCICVKK) [TickCore3, conserved linear gamma core moiety of the tick defensin DefMT3] | significantly inhibited fungal growth at all the concentrations tested | non-detectable levels; also recorded: residual levels | non-detectable levels | inhibition of TCTB mycotoxin production (DON and 15-ADON together) [2]: inhibits the production of category B trichothecenes
9 | C G N F L K R T C I C V K T (CGNFLKRTCICVKT) [TickCore3-K14T] | strong antifungal activity only at 50 μM |  |  | 
10 | C G N F L T R T C I C V K K (CGNFLTRTCICVKK) [TickCore3-K6T] | no antifungal activity below the concentration at 50 μM |  |  | inhibition of TCTB mycotoxin production (DON and 15-ADON together) [2]: reduction in the ability to inhibit TCTB production is particularly pronounced
11 | CGNFLKRTC(CH3)ICVKK [TickCore3-CH3-2 Ox] | no effect on fungal growth at any of the concentrations tested | did not change significantly | significant increase | 

— patent US20230157302A1, “METHODS FOR […] MYCOTOXIN PRODUCTION” (Institut National de Recherche Pour L'Agriculture, …, priority 2020, published 2023)
